The source made the active and inactive calls.
How the values were obtained:
[1] = target: Sphingosine 1-phosphate receptor 1 (Homo sapiens, UniProt P21453); assay: Dose Response Cell-Based Assay for Agonists of the Sphingosine 1-Phosphate Receptor 1 (S1P1): Purchased Analogues. [Related pubchem assays: 1192, 373, 439 ]; assay type: functional
[2] = target: Sphingosine 1-phosphate receptor 3 (Homo sapiens, UniProt Q99500); assay: Dose Response Cell-Based Assay for Agonists of the Sphingosine 1-Phosphate Receptor 3 (S1P3): Purchased Analogues. [Related pubchem assays: 373, 439 ]; assay type: functional
Chain of Sphingosine 1-phosphate receptor 3 (Q99500 whole entry): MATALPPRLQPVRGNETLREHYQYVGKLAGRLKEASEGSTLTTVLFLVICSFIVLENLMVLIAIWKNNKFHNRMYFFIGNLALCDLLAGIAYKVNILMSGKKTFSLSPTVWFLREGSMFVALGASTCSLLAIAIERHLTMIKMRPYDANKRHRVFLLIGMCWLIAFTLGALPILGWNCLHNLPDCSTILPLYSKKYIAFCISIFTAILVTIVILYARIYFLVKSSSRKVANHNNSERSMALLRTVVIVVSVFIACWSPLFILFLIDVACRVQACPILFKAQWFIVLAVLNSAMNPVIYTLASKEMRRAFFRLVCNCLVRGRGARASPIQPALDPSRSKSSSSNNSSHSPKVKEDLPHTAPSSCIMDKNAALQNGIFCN

[3] = target: Sphingosine 1-phosphate receptor 2 (Homo sapiens, UniProt O95136); assay: Dose Response Cell-Based Assay for Agonists of the Sphingosine 1-Phosphate Receptor 2 (S1P2): Purchased Analogues. [Related pubchem assays: 1192, 373, 439 ]; assay type: functional
Chain of Sphingosine 1-phosphate receptor 2 (O95136 whole entry): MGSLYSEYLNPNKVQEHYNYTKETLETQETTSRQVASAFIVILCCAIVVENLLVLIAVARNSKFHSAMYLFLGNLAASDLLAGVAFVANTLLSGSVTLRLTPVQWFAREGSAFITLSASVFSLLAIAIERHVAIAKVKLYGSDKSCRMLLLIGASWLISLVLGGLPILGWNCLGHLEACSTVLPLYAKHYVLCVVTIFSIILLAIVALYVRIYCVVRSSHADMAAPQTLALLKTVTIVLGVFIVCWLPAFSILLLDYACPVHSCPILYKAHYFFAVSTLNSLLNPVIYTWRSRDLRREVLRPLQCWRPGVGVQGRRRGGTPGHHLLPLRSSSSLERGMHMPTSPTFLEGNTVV

INS1 = assay: beta cell apoptosis inhibitors, cytokine rescue, dose response, luminescence, retest (AID 449756); assay type: functional, cell-based;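 also: cell death triggered by IL-1 beta plus TNF-alpha plus IFN-gamma mixture; protective hits raise ATP signal compared with cytokine alone wells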
[4] = target: Induced myeloid leukemia cell differentiation protein Mcl-1 (Homo sapiens, UniProt Q07820); assay type: functional
Chain of Induced myeloid leukemia cell differentiation protein Mcl-1 (Q07820 whole entry): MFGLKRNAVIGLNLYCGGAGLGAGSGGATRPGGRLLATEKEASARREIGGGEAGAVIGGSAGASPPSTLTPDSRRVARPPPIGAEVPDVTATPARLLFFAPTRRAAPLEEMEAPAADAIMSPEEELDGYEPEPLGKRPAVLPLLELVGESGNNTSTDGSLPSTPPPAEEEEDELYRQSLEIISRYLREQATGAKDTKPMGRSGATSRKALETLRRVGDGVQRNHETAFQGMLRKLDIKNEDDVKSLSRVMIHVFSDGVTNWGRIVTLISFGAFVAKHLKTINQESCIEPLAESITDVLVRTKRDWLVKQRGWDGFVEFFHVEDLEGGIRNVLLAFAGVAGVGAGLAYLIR

[5] = target: Serine/threonine-protein phosphatase (Homo sapiens, UniProt Q9BPW0); assay: PP5 phosphatase inhibitors, dose response, biochemical, fluorescence (AID 2395)
Chain of Serine/threonine-protein phosphatase (Q9BPW0 whole entry): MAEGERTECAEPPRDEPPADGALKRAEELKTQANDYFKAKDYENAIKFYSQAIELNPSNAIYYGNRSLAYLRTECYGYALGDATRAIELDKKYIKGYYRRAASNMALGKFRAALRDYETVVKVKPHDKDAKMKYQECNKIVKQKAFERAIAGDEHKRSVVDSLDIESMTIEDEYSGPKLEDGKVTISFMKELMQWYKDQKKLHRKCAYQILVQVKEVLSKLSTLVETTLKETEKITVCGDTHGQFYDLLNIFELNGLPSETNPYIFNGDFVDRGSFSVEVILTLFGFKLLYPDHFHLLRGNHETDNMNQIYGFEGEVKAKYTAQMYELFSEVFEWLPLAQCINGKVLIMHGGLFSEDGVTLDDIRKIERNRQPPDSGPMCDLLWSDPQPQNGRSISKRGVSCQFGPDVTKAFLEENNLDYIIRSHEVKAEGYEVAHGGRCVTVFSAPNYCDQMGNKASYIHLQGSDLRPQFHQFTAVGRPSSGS

[6] = target: Mitochondrial peptide methionine sulfoxide reductase (Bos taurus, UniProt P54149); assay: Absorbance-based biochemical high throughput dose response assay for activators of Methionine sulfoxide reductase A (MsrA).; assay type: functional
Chain of Mitochondrial peptide methionine sulfoxide reductase (P54149 whole entry): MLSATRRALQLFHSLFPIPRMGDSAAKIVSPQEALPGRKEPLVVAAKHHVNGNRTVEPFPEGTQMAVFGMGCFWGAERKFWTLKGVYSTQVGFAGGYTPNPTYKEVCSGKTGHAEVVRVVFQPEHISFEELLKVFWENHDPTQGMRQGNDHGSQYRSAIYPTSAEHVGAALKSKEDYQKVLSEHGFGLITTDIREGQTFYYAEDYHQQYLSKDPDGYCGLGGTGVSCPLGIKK

[7] = target: Serine/threonine-protein phosphatase PP1-alpha catalytic subunit (Homo sapiens, UniProt P62136); assay: PP1 phosphatase inhibitors, dose response, biochemical, fluorescence (AID 2394)
Chain of Serine/threonine-protein phosphatase PP1-alpha catalytic subunit (P62136 whole entry): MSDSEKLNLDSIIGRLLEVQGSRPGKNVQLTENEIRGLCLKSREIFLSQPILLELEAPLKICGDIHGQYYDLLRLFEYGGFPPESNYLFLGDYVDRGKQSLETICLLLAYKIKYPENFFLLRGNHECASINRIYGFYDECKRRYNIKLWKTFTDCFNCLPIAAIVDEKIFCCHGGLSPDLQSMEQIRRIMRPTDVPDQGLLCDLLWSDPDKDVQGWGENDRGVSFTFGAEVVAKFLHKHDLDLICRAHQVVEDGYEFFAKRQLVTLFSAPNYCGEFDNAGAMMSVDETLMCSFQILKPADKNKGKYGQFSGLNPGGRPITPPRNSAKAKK

[8] = insulin promoter down-regulators in MIN6 cells, imaging, high-content screening, mouse beta cells (AID 1628); assay type: functional
[9] = target: T1, Neuropeptide Y receptor type 2 (Homo sapiens, UniProt P49146); assay: NPY-Y2 antagonist potency, selectivity check, dose response, counter-screen for NPY-Y1 antagonist project, cell-based (AID 1278); assay type: functional
T1 sequence (P49146 whole entry): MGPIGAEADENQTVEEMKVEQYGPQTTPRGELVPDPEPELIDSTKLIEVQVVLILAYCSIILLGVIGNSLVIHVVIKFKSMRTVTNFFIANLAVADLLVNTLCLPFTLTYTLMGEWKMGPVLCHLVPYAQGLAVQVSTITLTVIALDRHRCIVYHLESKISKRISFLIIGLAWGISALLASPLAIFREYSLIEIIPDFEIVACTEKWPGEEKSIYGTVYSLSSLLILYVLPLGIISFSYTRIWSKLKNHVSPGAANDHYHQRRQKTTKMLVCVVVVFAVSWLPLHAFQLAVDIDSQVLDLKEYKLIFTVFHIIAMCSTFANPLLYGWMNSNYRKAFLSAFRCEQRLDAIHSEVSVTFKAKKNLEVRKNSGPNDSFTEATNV

[10] = target: T2, Neuropeptide Y receptor type 1 (Homo sapiens, UniProt P25929); assay: NPY-Y1 receptor antagonist potency, dose response, cell-based (AID 1277); assay type: functional
T2 sequence (P25929 whole entry): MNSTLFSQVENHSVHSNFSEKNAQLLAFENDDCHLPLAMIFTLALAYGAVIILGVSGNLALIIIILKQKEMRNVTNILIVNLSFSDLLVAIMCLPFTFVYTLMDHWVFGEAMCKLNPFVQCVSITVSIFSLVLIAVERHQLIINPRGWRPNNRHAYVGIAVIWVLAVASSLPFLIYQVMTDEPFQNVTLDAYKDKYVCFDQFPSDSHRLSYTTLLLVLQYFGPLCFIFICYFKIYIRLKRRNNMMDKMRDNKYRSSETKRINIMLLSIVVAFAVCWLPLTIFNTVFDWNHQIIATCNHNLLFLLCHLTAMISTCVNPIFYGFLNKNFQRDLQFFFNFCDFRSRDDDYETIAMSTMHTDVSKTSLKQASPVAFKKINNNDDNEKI

Galanin receptor type 3 = target: T3, Galanin receptor type 3 (Homo sapiens, UniProt O60755); assay: Fluorescence-based cell-based primary high throughput dose response assay to identify antagonists of the Galanin Receptor 3 (GalR3).; assay type: functional
T3 sequence (O60755 whole entry): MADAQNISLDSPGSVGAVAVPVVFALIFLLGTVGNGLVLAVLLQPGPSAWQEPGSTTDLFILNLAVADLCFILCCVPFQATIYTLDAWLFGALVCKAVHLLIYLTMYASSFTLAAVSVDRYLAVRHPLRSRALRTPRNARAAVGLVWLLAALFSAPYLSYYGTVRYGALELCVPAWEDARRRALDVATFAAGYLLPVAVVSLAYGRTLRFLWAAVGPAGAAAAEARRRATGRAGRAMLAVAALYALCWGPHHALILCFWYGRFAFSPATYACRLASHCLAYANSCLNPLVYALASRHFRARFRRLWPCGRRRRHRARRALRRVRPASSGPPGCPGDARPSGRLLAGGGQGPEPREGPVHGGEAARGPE

Protein Wnt-3a = Protein Wnt-3a (Mus musculus, UniProt P27467); assay: Wnt3a-driven reporter signaling inhibition, dose response, selectivity assay for Gli-SUFU antagonist project, Wnt-LIGHT cells, luminescence (AID 651570); assay type: functional; conditions: read-out: IC50_Mean;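 also: Wnt-LIGHT reporter cells stimulated with conditioned medium from Wnt3a-producing cells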
Chain of Protein Wnt-3a (P27467 whole entry): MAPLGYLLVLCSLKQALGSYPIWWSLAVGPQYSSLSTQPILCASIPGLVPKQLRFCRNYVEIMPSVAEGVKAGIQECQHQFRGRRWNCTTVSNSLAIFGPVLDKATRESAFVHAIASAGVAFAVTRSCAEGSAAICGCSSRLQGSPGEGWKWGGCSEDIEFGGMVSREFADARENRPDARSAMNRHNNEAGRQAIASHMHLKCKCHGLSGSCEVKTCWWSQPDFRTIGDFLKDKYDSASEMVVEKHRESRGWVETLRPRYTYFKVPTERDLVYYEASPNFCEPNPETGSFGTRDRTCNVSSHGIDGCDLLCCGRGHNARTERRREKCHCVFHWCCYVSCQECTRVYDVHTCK

[11] = cytotoxicity in MIN6 insulinoma cells, dose response, cytotoxicity control, cell-based, mouse insulinoma (AID 2122); assay type: functional;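 also: confirmatory high-throughput counterscreen run to flag cytotoxic compounds; mouse MIN-6 beta cells carrying an insulin promoter eGFP reporter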
cells = assay type: functional, cell-based; conditions: HEK-CNG
[12] = target: T4, COUP transcription factor 2 (Homo sapiens, UniProt P24468); assay: Luminescence-based cell-based high throughput dose response assay to identify inhibitors of COUP-TFII (NR2F2).; assay type: functional;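 also: HEK293 cells transiently cotransfected with COUP-TFII expression vector and reporter; luciferase reporter luminescence driven by COUP-TFII from the pX2-168 reporter plasmid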
T4 sequence (P24468 whole entry): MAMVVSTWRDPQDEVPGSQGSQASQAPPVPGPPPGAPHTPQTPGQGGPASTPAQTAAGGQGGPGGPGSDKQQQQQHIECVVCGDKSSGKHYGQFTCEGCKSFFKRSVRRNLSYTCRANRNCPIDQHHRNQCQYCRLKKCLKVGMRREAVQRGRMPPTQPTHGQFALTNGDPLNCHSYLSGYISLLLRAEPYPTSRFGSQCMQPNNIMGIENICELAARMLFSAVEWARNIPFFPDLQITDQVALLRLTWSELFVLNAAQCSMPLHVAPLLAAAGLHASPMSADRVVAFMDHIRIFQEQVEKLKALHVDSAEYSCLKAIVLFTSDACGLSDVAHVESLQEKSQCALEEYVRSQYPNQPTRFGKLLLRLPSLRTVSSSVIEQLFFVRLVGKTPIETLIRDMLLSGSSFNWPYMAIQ

Chain of Sphingosine 1-phosphate receptor 1 (P21453 whole entry): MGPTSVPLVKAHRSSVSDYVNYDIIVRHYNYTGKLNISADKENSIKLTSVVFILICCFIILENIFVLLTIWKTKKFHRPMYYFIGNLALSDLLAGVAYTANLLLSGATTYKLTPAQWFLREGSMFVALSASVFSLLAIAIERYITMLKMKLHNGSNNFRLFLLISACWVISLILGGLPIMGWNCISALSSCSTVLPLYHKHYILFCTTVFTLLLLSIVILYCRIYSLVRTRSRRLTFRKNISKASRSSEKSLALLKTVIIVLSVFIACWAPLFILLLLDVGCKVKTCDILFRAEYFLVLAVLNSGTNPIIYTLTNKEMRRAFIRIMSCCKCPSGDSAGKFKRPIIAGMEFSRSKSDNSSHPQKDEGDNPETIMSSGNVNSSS

Row | SMILES | EC50 [1] | EC50 [2] | EC50 [3] | AC50 (INS1; Rattus norvegicus, INS1) | IC50 [4] | IC50 [5] | EC50 [6] | IC50 [7] | AC50 (INS1; ins1) | IC50 [8] | IC50 [9] | IC50 [10] | IC50 (Galanin receptor type 3) | IC50 (Protein Wnt-3a) | IC50 [11] | EC50 (cells) | IC50 [12]
1 | O=C(CSc1nnc(-c2ccco2)o1)N(C1CCCCC1)C1CCCCC1 | 0.278 µM (active) | 0.11 µM (active) | > 10 µM (not active) | – | – | – | – | – | – | – | – | – | – | – | – | – | –
2 | Cc1cc(C)c(S(=O)(=O)/N=C2/C=C(Sc3nc[nH]n3)C(=O)c3ccccc32)cc1C | – | – | – | 2.6 µM (active) | 3.07 µM (active) | 4.19 µM (active) | > 104 µM (inactive) | 18.6 µM (not active) | – | – | – | – | – | – | – | – | –
3 | COc1ccccc1-n1c(-c2ccccc2)c[n+]2c1CCc1ccccc1-2 | – | – | – | 2.31 µM (active) | – | – | – | – | 3.62 µM (active) | 0.548 µM (active) | 11.6 µM (not active) | 8.77 µM (active) | > 1.11 µM (active) | 6.31 µM (active) | 0.266 µM (active) | > 29.9 µM (inactive) | 6.73 µM (active)

From ChEMBL document CHEMBL1201862, “PubChem BioAssay data set” (2004)
